Read-outs that look alike come from different tables or passages of the source.
What was measured:
[1] = system: C. neoformans H99; format: cell-based, Cryptococcus neoformans; conditions: RPMI1640, 37 °C; for MIC of antifungal in combination with KKOO / MIC of antifungal in combination with KKOO-NH2: 48 h
Experimental: All microdilution assays with fungi were carried out in accordance with CLSI protocols from M27 for yeasts and M38 for filamentous fungi, respectively, unless otherwise specified.[64],[65] Briefly, 96-well plates were charged with RPMI1640 media, with operating volume in the first column, 200 μL, and half operating volume, 100 μL, in the remaining wells. Drug stock solution in DMSO was aliquoted into the first well in each row. Half of the volume in the dosed well was serially diluted 2-fold until column 11. Column 11 was used as the negative growth control, and column 12 was used as the positive growth control. ON yeast cultures in YPD were washed twice in DD-H2O, resuspended in PBS, and adjusted to 5000 cfu/mL in RPMI. The 96-well plate was inoculated with 100 μL aliquots of cell suspension per well. […]
(§1) To assess drug synergy, the initial media charged to the plate contained the peptide at twice the final operating concentration; the remaining processing steps were identical to the MIC experiment. Upon addition of 100 μL of inoculant, the final operating concentration was achieved. Control MIC plates were prepared alongside drug synergy plates to account for the day-to-day variability in any individual MIC. FIC index is computed using eq 1. All MIC assays and drug synergy assays were completed with two technical replicates per 96-well plate and a minimum of two biological replicates per drug combination. If a difference in MIC between the two technical replicates on the plate were observed, only the higher concentration was reported as the MIC to reduce the possibility of type 1 error (false positive) [drawing 1] 1

[2] = system: Cg FKS2 S663P; assay: Drug synergy (MIC in peptide-supplemented media); format: cell-based, Candida glabrata; conditions: RPMI1640, 37 °C, 48 h
Experimental: (§2) All microdilution assays with fungi were carried out in accordance with CLSI protocols from M27 for yeasts and M38 for filamentous fungi, respectively, unless otherwise specified.[64],[65] Briefly, 96-well plates were charged with RPMI1640 media, with operating volume in the first column, 200 μL, and half operating volume, 100 μL, in the remaining wells. Drug stock solution in DMSO was aliquoted into the first well in each row. Half of the volume in the dosed well was serially diluted 2-fold until column 11. Column 11 was used as the negative growth control, and column 12 was used as the positive growth control. ON yeast cultures in YPD were washed twice in DD-H2O, resuspended in PBS, and adjusted to 5000 cfu/mL in RPMI. The 96-well plate was inoculated with 100 μL aliquots of cell suspension per well. Plates were incubated at 37 °C for 2 days.
as §1

[3] = system: Cg FKS1 S629P; assay: Drug synergy (MIC in peptide-supplemented media); format: cell-based, Candida glabrata; conditions: RPMI1640, 37 °C, 48 h
Experimental: as §2, §1

[4] = system: Cn apt1Δ; assay: microbe, parasite or virus in culture; format: cell-based, Cryptococcus neoformans; conditions: Cryptococcus neoformans, 48 h, 37 °C, 48 h
Experimental: (§3) Previous studies have shown that modifying microbiological media with salts such as CaCl2 can have a drastic effect on the growth of fungi and their responses to antifungals.[19],[35] In the case of CaCl2, the divalent cation, Ca^2+, is involved in fungal cell stress response. To understand how the peptide activity may involve calcium and stress response, the MICs of KKOO, KKOO-NH2, FLC, and CAS were assessed as a function of the calcium concentration in liquid YPD media. It was observed that calcium enrichment completely desensitized the wild-type strain to KKOO and KKOO-NH2, Tables 7 and 8, respectively. Effects of calcium enrichment on the susceptibility of Cryptococcus to CAS similar to literature values were recorded, Supporting Information, Table S7.[35]
as §2

[5] = system: Cn crm1Δ; assay: microbe, parasite or virus in culture; format: cell-based, Cryptococcus neoformans; conditions: Cryptococcus neoformans, 48 h, 37 °C
Experimental: as §3, §2

[6] = system: Cn Crm1-oe; assay: microbe, parasite or virus in culture; format: cell-based, Cryptococcus neoformans; conditions: Cryptococcus neoformans, CRM1OE, 48 h, 37 °C
Experimental: as §3, §2

[7] = system: Cn H99; assay: microbe, parasite or virus in culture; format: cell-based, Cryptococcus neoformans; conditions: Cryptococcus neoformans, H99, 48 h, 37 °C, 48 h, read-out: MIC
Experimental: as §3
In order to control for the effects of enriching YPD with a divalent cation, MICs and ROS production were also measured as a function of the MgCl2 supplement at the same millimolar concentrations of cation as in the CaCl2-modified experiments. […] No peptide susceptibility changes were observed against Cn cdc50Δ in magnesium-enriched media, Table S9. ROS production in H99 induced by peptide exposure was inhibited after 30 min of treatment in the magnesium-enriched condition, similar to the levels observed in the calcium-enriched media at 16 μg/mL KKOO-NH2, Figure S1. […] The link between peptide activity and calcium homeostasis may be vital in understanding precisely how the peptide kills fungal cells and requires more research to elucidate.
as §2

## OC(Cn1cncn1)(Cn1cncn1)c1ccc(F)cc1F [FLC, fluconazole]
[1]; +0 μg/mL (FITC)KKOO
  MIC of antifungal in combination with (FITC)KKOO: 2 µg/mL
[1]; +0 μg/mL KKOO (control)
  MIC of antifungal in combination with KKOO: 2 µg/mL
[1]; +0 μg/mL KKOO-NH2 (control)
  MIC of antifungal in combination with KKOO-NH2: 2 µg/mL
[1]; +1 μg/mL KKOO-NH2
  MIC of antifungal in combination with KKOO-NH2: 2 µg/mL
[1]; +1 μg/mL KKOO
  MIC of antifungal in combination with KKOO: 2 µg/mL
[1]; +2 μg/mL KKOO-NH2
  MIC of antifungal in combination with KKOO-NH2: 2 µg/mL
[1]; +2 μg/mL KKOO
  MIC of antifungal in combination with KKOO: 2 µg/mL
[1]; +4 μg/mL (FITC)KKOO
  MIC of antifungal in combination with (FITC)KKOO: 2 µg/mL
[1]; +4 μg/mL KKOO-NH2
  MIC of antifungal in combination with KKOO-NH2: 1 µg/mL
[1]; +4 μg/mL KKOO
  MIC of antifungal in combination with KKOO: 2 µg/mL
[1]; +8 μg/mL (FITC)KKOO
  MIC of antifungal in combination with (FITC)KKOO: 2 µg/mL
[1]; +8 μg/mL KKOO
  MIC of antifungal in combination with KKOO: 1 µg/mL
[2]; +0 μg/mL KKOO (control)
  MIC of antifungal in combination with KKOO: 0.5 µg/mL
[2]; +0 μg/mL KKOO-NH2 (control)
  MIC of antifungal in combination with KKOO-NH2: 0.5 µg/mL
[2]; +1 μg/mL KKOO-NH2
  MIC of antifungal in combination with KKOO-NH2: 0.5 µg/mL
[2]; +1 μg/mL KKOO
  MIC of antifungal in combination with KKOO: 0.5 µg/mL
[2]; +2 μg/mL KKOO-NH2
  MIC of antifungal in combination with KKOO-NH2: 0.5 µg/mL
[2]; +2 μg/mL KKOO
  MIC of antifungal in combination with KKOO: 0.5 µg/mL
[2]; +4 μg/mL KKOO-NH2
  MIC of antifungal in combination with KKOO-NH2: 0.5 µg/mL
[2]; +4 μg/mL KKOO
  MIC of antifungal in combination with KKOO: 0.5 µg/mL
[3]; +0 μg/mL KKOO (control)
  MIC of antifungal in combination with KKOO: 2 µg/mL
[3]; +0 μg/mL KKOO-NH2 (control)
  MIC of antifungal in combination with KKOO-NH2: 2 µg/mL
[3]; +1 μg/mL KKOO-NH2
  MIC of antifungal in combination with KKOO-NH2: 2 µg/mL
[3]; +1 μg/mL KKOO
  MIC of antifungal in combination with KKOO: 2 µg/mL
[3]; +2 μg/mL KKOO-NH2
  MIC of antifungal in combination with KKOO-NH2: 2 µg/mL
[3]; +2 μg/mL KKOO
  MIC of antifungal in combination with KKOO: 2 µg/mL
[3]; +4 μg/mL KKOO-NH2
  MIC of antifungal in combination with KKOO-NH2: 1 µg/mL
[3]; +4 μg/mL KKOO
  MIC of antifungal in combination with KKOO: 2 µg/mL
[4]; YPD + 0 mM Ca2+
  MIC: 0.25 µg/mL
[4]; YPD + 2.5 mM Ca2+
  MIC: 0.5 µg/mL
[4]; YPD + 5 mM Ca2+
  MIC: 1 µg/mL
[4]; YPD + 10 mM Ca2+
  MIC: 0.5 µg/mL
[4]; YPD + 20 mM Ca2+
  MIC: 0.5 µg/mL
[5]; YPD + 0 mM Ca2+
  MIC: 4 µg/mL
[5]; YPD + 2.5 mM Ca2+
  MIC: 4 µg/mL
[5]; YPD + 5 mM Ca2+
  MIC: 4 µg/mL
[5]; YPD + 10 mM Ca2+
  MIC: 8 µg/mL
[5]; YPD + 20 mM Ca2+
  MIC: 8 µg/mL
[6]; YPD + 0 mM Ca2+
  MIC: 1 µg/mL
[6]; YPD + 2.5 mM Ca2+
  MIC: 2 µg/mL
[6]; YPD + 5 mM Ca2+
  MIC: 2 µg/mL
[6]; YPD + 10 mM Ca2+
  MIC: 2 µg/mL
[6]; YPD + 20 mM Ca2+
  MIC: 2 µg/mL
[7]; YPD + 0 mM Ca2+
  MIC: 8 µg/mL
[7]; YPD + 0 mM Mg2+
  MIC: 4 µg/mL
[7]; YPD + 2.5 mM Ca2+
  MIC: 8 µg/mL
[7]; YPD + 2.5 mM Mg2+
  MIC: 4 µg/mL
[7]; YPD + 5 mM Ca2+
  MIC: 8 µg/mL
[7]; YPD + 5 mM Mg2+
  MIC: 2 µg/mL
[7]; YPD + 10 mM Ca2+
  MIC: 8 µg/mL
[7]; YPD + 10 mM Mg2+
  MIC: 2 µg/mL
[7]; YPD + 20 mM Ca2+
  MIC: 8 µg/mL
[7]; YPD + 20 mM Mg2+
  MIC: 2 µg/mL

From publication PMC11555678, “Improved Broad Spectrum Antifungal Drug Synergies with Cryptomycin, a Cdc50-Inspired Antifungal Peptide” (ACS Infectious Diseases, 2024)
